From patent publication US20230285598A1, “SULFOXONIUM YLIDE DERIVATIVES AS PROBES FOR CYSTEINE PROTEASE” (Takeda Pharmaceutical Company Limited, priority 2018, published 2023)
“Also recorded” adds a separate entry of the source.

Key:
[1] = target: T1, cathepsin X (Mus musculus, UniProt Q9WUU7); test: Probe labeling of kidney lysates, in-gel fluorescence; assay type: biochemical; conditions: 0.1-5 µM for 20 minutes
Description: issues were harvested from healthy mice and snap frozen. At the time of analysis, lysis buffer was added at 10x volume:weight, and tissues were sonicated on ice. Cleared lysates were labeled with the indicated probe and analyzed as above.
In Example 7, sulfoxonium ylide probes as prepared in accordance with Example 1 were tested in kidney lysates and the results compared to BMV109. The sulfoxonium ylide probes (and BMV109) were each added with increasing probe concentrations of 0.1 µM, 0.5 µM, 1 µM and 5 µM for 20 minutes.

[2] = target: T1, cathepsin X; test: Confocal microscopy of kidney cryosections after in vivo probe administration
Description: Kidney tissues from mice that received sCy5-Nle-SY (or vehicle control) above were fixed overnight in 4% paraformaldehyde in PBS followed by overnight cryoprotection in 30% sucrose. Tissues were embedded in OCT, frozen on dry ice, and sectioned at 10 µm. Immunostaining for cathepsin X was carried out according to standard protocols. In brief, sections were air dried, fixed in cold acetone for 10 minutes, air dried again, and then rehydrated in PBS. Sections were blocked in PBS containing 3% normal horse serum with 0.1% Triton X-100. Goat anti-cathepsin X was added at 1:100 in blocking buffer overnight at 4° C. Sections were then washed, and secondary antibody, donkey anti-goat-AlexaFluor594 was added at 1:500 for 1 hour at room temperature. Sections were stained with DAPI for 5 minutes, washed, and mounted with ProLong Diamond. Staining was analyzed using a Leica SP8 inverted confocal microscope.
Additionally, after in vivo probe administration, kidney cryosections from sCy5-Nle-SY-injected mice or no-probe control were prepared and analyzed by confocal microscopy for sCy5 fluorescence (red) or cathepsin X immunoreactivity (green) along with DAPI (blue) to visualize nuclei. […] Thus, sCy5-Nle-SY could be used to distinguish active cathepsin X relative to total cathepsin X in tissues after in vivo administration.

[3] = target: T1, cathepsin X; test: In vivo probe labeling in mice (intravenous), tissues analyzed by fluorescent SDS-PAGE
Description: For in vivo labeled tissues, mice were first injected intravenously via the tail vein with sCy5-Nle-SY, BMV109, or sCy5-Nle-AOMK (50 nmol in 100 µl 10% DMSO/PBS or vehicle control). Tissues were harvested and analyzed as above except without further probe addition.
In Example 10, the probe sCy5-Nle-SY, vehicle control/no probe (NP) or BMV109 were injected into mice intravenously. After two hours of circulation, tissues were harvested, lysed, and analyzed for probe labeling by fluorescent SDS-PAGE.
In Example 12, the AOMK probe sCy5-Nle-AOMK was tested in vivo and its labeling in tissues was analyzed. The probe was injected into mice intravenously. After two hours of circulation, tissues were harvested, lysed, and analyzed for probe labeling by fluorescent SDS-PAGE.

[4] = target: cathepsin X (Homo sapiens, UniProt Q9UBR2); test: Labeling of human oral squamous cell carcinoma tissue lysates, in-gel fluorescence; assay type: biochemical; parameters: Tissues were lysed by sonication in citrate buffer and supernatants were cleared by centrifugation; from tissue; host or cells: human oral squamous cell carcinoma biopsies and patient-matched normal oral mucosa; conditions: °C5 µM for 20 minutes; 80 µg protein
cathepsin X (Homo sapiens, UniProt Q9UBR2), sequence (Q9UBR2 62-303): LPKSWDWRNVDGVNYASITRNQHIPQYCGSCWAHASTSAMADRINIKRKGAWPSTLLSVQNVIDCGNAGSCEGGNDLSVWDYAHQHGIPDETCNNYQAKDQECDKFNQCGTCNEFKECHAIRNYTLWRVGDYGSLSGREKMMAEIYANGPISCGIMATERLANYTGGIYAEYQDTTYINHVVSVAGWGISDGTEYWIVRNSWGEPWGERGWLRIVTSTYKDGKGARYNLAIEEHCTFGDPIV
Text: To investigate the ability of sCy5-,Nle-SY to label cathepsin X in human tissues, biopsies that were obtained from patients with oral squamous cell carcinoma were used. Normal oral mucosal tissues that were biopsied from the contralateral side of the tongues of the same patients were used as controls.
The human oral squamous cell carcinomas or patient-matched normal oral mucosa were biopsied according to protocols approved by the Institutional Review Board at the New York University Oral Cancer Centre. Biopsies were immediately snap-frozen and stored at -80° C. Tissues were lysed by sonication in citrate buffer and supernatants were cleared by centrifugation. Total protein concentration was assessed by BCA assay and 80 µg were labelled with Cy5-Nle-SY: The lysates prepared from the oral squamous cell carcinoma tissue or patient-matched normal oral mucosa were incubated with sCy5-Nle-SY (°C5 µM for 20 minutes) and labeling was analyzed by in-gel fluorescence (fluorescent SDS-PAGE). Samples were also immunoblotted to determine total cathepsin X expression (n=10). Additionally, the sCy5-Nle-SY-labeled cancer lysates were immunoprecipitated with a cathepsin X-specific antibody to verify the identity of the labeled protein.

[5] = target: T1, cathepsin X; test: Probe labeling of living RAW264.7 cells, in-gel fluorescence; assay type: cell-based; parameters: protein lysates prepared from RAW264.7 cells; host or cells: RAW264.7; conditions: Example 8; 0.1-5 µM for 2 hours
Description: AW cells or MDA-MB-231 ^HM cells were plated in 12-well plates. Where indicated, MDV-590 or vehicle was added at 10 µM from a 10 mM DMSO stock for overnight incubation. When the cell density reached 80%, the indicated probes were added at the indicated concentrations from a 1000x DMSO stock and allowed to incubate for the indicated time. Media was then removed and replaced with PBS. The cells were then scraped and transferred to tubes, and lysis and SDS-PAGE analysis were carried out as above, except skipping the probe addition step. […]
In Example 8, sulfoxonium ylide probes as prepared in accordance with Example 1 were applied to live RAW264.7 cells for two hours, in order to examine the potency and permeability of the sulfoxonium ylide probe series in living cells, and the results compared to BMV109.
The sulfoxonium ylide probes (and BMV109) were each added with increasing probe concentrations of 0.1 µM, 0.5 µM, 1 µM and 5 µM for 2 hours. […]

[6] = intravenous 50 nmol, two hours of circulation

T1 sequence (Q9WUU7 64-306): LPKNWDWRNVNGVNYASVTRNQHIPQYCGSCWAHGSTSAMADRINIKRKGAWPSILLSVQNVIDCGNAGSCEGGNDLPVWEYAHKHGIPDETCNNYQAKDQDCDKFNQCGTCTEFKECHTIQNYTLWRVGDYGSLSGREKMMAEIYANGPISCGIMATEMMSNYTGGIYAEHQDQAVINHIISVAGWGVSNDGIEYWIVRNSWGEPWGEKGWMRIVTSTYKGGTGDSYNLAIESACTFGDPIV

SMILES: CCCC[C@H](NC(=O)CCCCCN1/C(=C/C=C/C=C/C2=[N+](CC)c3ccc(S(=O)(=O)[O-])cc3C2(C)C)C(C)(C)c2cc(S(=O)(=O)O)ccc21)C(=O)C=S(C)(C)=O [sCy5-Nle-SY]
- potency and specificity of labeling in kidney lysates [1]: the most potency and specificity for cathepsin X
- sCy5 fluorescence in kidney cryosections ([2]; after in vivo probe administration): Strong punctate sCy5 fluorescence was observed
- overlap of sCy5 signal with cathepsin X immunoreactivity ([2]; kidney cryosections after in vivo probe administration): signal largely overlapped with immunoreactive cathepsin X
- labeling of cathepsin S, B and L in tissues after in vivo administration [3, 6]: some labeling of cathepsin S was also observed; also recorded: does not label cathepsin B or L
- labeling of cathepsin X in tissues after in vivo administration [3, 6]: Labeling of cathepsin X was observed in liver, kidney, colon, stomach, and spleen
- overall specificity profile in vivo ([3]; intravenous, two hours, compared to BMV109): clearly improved compared to BMV109
- labeling of cathepsin X in human oral squamous cell carcinoma lysates [4]: clear and selective labeling of cathepsin X was observed
- cathepsins labeled in live RAW264.7 cells [5]: labeled cathepsin X and S to similar extents and with similar potency
